We go through 2 compounds from patent publication US9644005B2, “Didemnin biosynthetic gene cluster in Tistrella mobilis” (King Abdullah University of Science and Technology, priority 2011, dated 2017).

Series [1] deals with HCT-116 human colon carcinoma cell. The experiment in a line: Cytotoxic activity using HCT-116 human colon carcinoma cell. Format: cell-based. The note with it: compounds purified by semi-preparative HPLC; cell line not restated.
Another series has as its system murine leukemia cells. The note with it: cited from earlier work.
For series [2] the following is noted: phase II human clinical trials; cited from earlier work.
In series [3] the test system is herpes simplex virus type 1. Conditions: DNA and RNA viruses such as herpes simplex virus type 1; cited from earlier work.

With nordidemnin B, the “concentration at which strong cytotoxic activity was shown” value in series [1] turned out to be 0.074 ng/mL.
Turning to `CC[C@H](C)[C@H]1NC(=O)[C@@H](NC(=O)[C@@H](CC(C)C)N(C)C(=O)[C@@H]2CCCN2C(=O)C(C)O)[C@@H](C)OC(=O)[C@H](Cc2ccc(OC)cc2)N(C)C(=O)[C@@H]2CCCN2C(=O)[C@H](CC(C)C)NC(=O)[C@@H](C)C(=O)[C@H](C(C)C)OC(=O)C[C@@H]1O` (some centres unmarked) [didemnin B], the “activity against murine leukemia cells” value in the series with murine leukemia cells is recorded as “strong activity”. Moreover, the “concentration at which strong cytotoxic activity was shown” value in series [1] stood at 0.074 ng/mL. Moreover, the “toxicity in human subjects” value in series [2] is “high toxicity”. Moreover, in series [3], the antiviral activity entry is recorded as “strong antiviral agent”.
